# Experimental data reported in patent US12370158B2, “Analogs of CYP-eicosanoids for use in treating or preventing a disorder associated with neovascularization and/or inflammation” (OMEICOS Therapeutics GmbH, priority 2016, dated 2025).
# Legend:
# [1] = Ocular pharmacokinetics of Comp-02 after oral administration in rabbit; format: in vivo, pigmented HY79b rabbits; conditions: for Comp-02 content (below lower limit of detection): oral; for Cmax / Tmax / AUC / half-life: male, pigmented HY79b, rabbit; for Cmax: single oral 2 mg/kg (0.2 mg/mL); for Tmax / AUC / half-life: single oral 2 mg/kg; for AUC: read-out: AUC1-48 hours; for half-life: calculated from the Tmax value
# Experimental: (§1) Study design: To gain insight into the distribution behaviour of synthetic 17,18-EEQ-agonists, ocular pharmacokinetic studies were performed in pigmented HY79b rabbits. Briefly, 15 male rabbits per administration route were anesthetized at the time-points for sampling indicated in tables 2-4 by an intramuscular injection of a mixed solution of xylazine and ketamine. Blood collection was performed by cardiac puncture in K3EDTA tubes and centrifuged at 2000 g, 10 min at 4° C. Approximately 3 mL of plasma were sampled, put in plastic tubes, snap frozen in liquid nitrogen and stored at −80° C. until assay. Then animals were euthanized by intracardiac injection of overdosed pentobarbital. This method is one of the recommended methods for euthanasia by the European authorities (French decree No. 2013-118, dated Feb. 1, 2013 publishing the European directive 2010/63/UE. J.Offic. Rp. Fr. 2013; Text 24 out of 130). Immediately after euthanasia, samples from both eyes were quickly and carefully taken, put in plastic tubes, weighed, snap frozen in liquid nitrogen and stored at −80° C. until assay. Content of Comp-02 was determined in ocular samples and plasma following an established RRLCMS/MS method. The results are presented in Tables 5-7 and are expressed as mean values for the different pharmacokinetic parameters. Chromatogram integration was done using MassHunter software. Apparent Cmax and Tmax, T½, AUC1-48 h were calculated by Excel® software. Concentrations were expressed in ng/g or ng/mL of tissue/eye compartment.
# [2] = Ocular pharmacokinetics of Comp-02 after topical administration (instillation) in rabbit; format: in vivo, pigmented HY79b rabbits; conditions: male, pigmented HY79b, topical or ocular, 50 μl of 1 mg/mL in both eyes; for Cmax: single instillation 50 μl (1 mg/mL) in both eyes; for Tmax / half-life / AUC: topical; for half-life: calculated from the Tmax value; for AUC: read-out: AUC1-48 hours
# Experimental: as §1
# [3] = Ocular pharmacokinetics of Comp-02 after intravitreal injection in rabbit; format: in vivo, pigmented HY79b rabbits; conditions: for AUC / Tmax / half-life / Cmax: male, pigmented HY79b; for AUC / Tmax / half-life: intravitreal; for AUC: read-out: AUC1-48 hours; for half-life: calculated from the Tmax value; for Cmax: topical or ocular, single vitreal injection of 50 μl (1 mg/mL) in both eyes
# Experimental: as §1
# HL-1 cells = assay: Viability of LPS-challenged HL-1 cardiomyocytes; format: cell-based, mouse; conditions: 10 nM, 100 nM or 1 μM, 1 μg/mL LPS, 24 h
# Experimental: A cardiomyocyte cell line was used (mouse derived immortalized cardiomyocytes, HL-1 cells). Cells were either treated with vehicle (0.01% ethanol) or different concentrations of test compound (Comp-02: cE=10 nM, 100 nM or 1 μM). Simultaneously, the cells were challenged with 1 μg/mL lipopolysaccharide (LPS). After 24 h of incubation, the cells were processed to measure viability.
# (§2) In order to investigate the anti-inflammatory potential of compounds being part of the invention in vitro, a cardiomyocyte cell line was used (mouse derived immortalized cardiomyocytes, HL-1 cells). Cells were either treated with vehicle (0.01% ethanol) or different concentrations of test compound (Comp-02: cE=10 nM, 100 nM or 1 μM). Simultaneously, the cells were challenged with 1 μg/mL lipopolysaccharide (LPS). After 24 h of incubation, the cells were processed to measure viability (FIG. 2) and release of the pro-inflammatory cytokine TNF alpha (FIG. 3).
# [4] = test system: TNF alpha release from the HL-1 cells; assay: TNF alpha release from HL-1 cardiomyocytes; format: cell-based, mouse; conditions: 24 h
# Experimental: A cardiomyocyte cell line was used (mouse derived immortalized cardiomyocytes, HL-1 cells). Cells were either treated with vehicle (0.01% ethanol) or different concentrations of test compound (Comp-02: cE=10 nM, 100 nM or 1 μM). Simultaneously, the cells were challenged with 1 μg/mL lipopolysaccharide (LPS). After 24 h of incubation, the cells were processed to measure release of the pro-inflammatory cytokine TNF alpha.
# as §2
# [5] = test system: double transgenic rats (dTGR), cardiac tissue; assay: Cardiac inflammation (ED1 macrophage infiltration) in dTGR rat model of severe hypertension and end-organ damage; format: in vivo; conditions: 1.33 mg/kg twice daily by gavage for 21 days, compared to vehicle treated dTGRs
# Description: (§3) The aim of this study was to assess and compare the effect of continuous oral treatment of a metabolically robust analog of 17,18-EEQ (Comp-02) or vehicle (isotonic salt solution) on physiological parameters, clinical chemistry and end-organ damage in male double transgenic rats (dTGR). Non-treated Sprague-Dawley rats (SD) of same genetic background were used as control. Double transgenic rats, overexpressing the human renin and angiotensinogen genes, develop severe hypertension and are a model for Ang-II induced end-organ damage with cardiac hypertrophy and kidney failure. Moreover, the dTGR model features severe […], cardiac hypertrophy and nephrosclerosis with marked fibrosis and inflammation.
# (§4) Before start of the experiment the animals were randomly assigned to either compound or vehicle treatment. […] Comp-02 was prepared in 61.6 ppm Na2CO3 and 0.9% NaCl ready to use solution for application, while dTGR animals were dosed twice daily with 0.9% NaCl ready to use solution for vehicle control. […] Samples were analysed using a Zeiss Axioplan-2 imaging microscope with the digital image-processing program AxioVision 4.8. […] Data were expressed as sum of 20 randomly chosen view fields, non-overlapping fields per section. […]
# [6] = test system: double transgenic rats (dTGR), renal tissue; assay: Renal inflammation (ED1 macrophage infiltration) in dTGR rat model of severe hypertension and end-organ damage; format: in vivo; conditions: 1.33 mg/kg twice daily by gavage for 21 days, compared to vehicle treated dTGRs
# Description: as §3, §4
# [7] = Ocular pharmacokinetics of Comp-02 after topical administration (instillation) in rabbit; format: in vivo, pigmented HY79b rabbits; conditions: checked by ophthalmoscopy
# [8] = Ocular pharmacokinetics of Comp-02 after intravitreal injection in rabbit; format: in vivo, pigmented HY79b rabbits; conditions: ocular examination with a slit lamp
# [9] = other: intravitreal injection, 50 μl of 1 mg/mL in both eyes, vitreous
# [10] = other: intravitreal, 50 µg/eye, choroid
# [11] = other: intravitreal, 50 µg/eye, plasma
# [12] = other: intravitreal, 50 µg/eye, retina
compound,measurement,setting,value
"CNC(=O)C(=O)NCCCC/C=C\CCCCCCCOCC(=O)O [Comp-02, 2-((13-(2-(methylamino)-2-oxoacetamido)tridec-8(Z)-en-1-yl)oxy)acetic acid]",Comp-02 content (below lower limit of detection),"[1]; aqueous humor samples, except for one out of 15 animals",< 0.1 ng/10 μl injected
same,Cmax,[1]; aqueous humor,8 ng/mL
same,Tmax,[1]; aqueous humor,1 h
same,AUC,[1]; aqueous humor,12 ng·h/mL
same,Cmax,[1]; choroid,246 ng/g
same,Tmax,[1]; choroid,1 h
same,half-life,[1]; choroid,9 h
same,AUC,[1]; choroid,1390 ng·h/mL
same,Cmax,[1]; plasma,1210 ng/mL
same,Tmax,[1]; plasma,1 h
same,half-life,[1]; plasma,6 h
same,AUC,[1]; plasma,6330 ng·h/mL
same,Cmax,[1]; retina,15 ng/g
same,Tmax,[1]; retina,4 h
same,Comp-02 content (below lower limit of detection),"[1]; retina samples, except for two out of 15 animals",< 0.1 ng/10 μl injected
same,Cmax,[2]; aqueous humor,88 ng/mL
same,Tmax,[2]; aqueous humor,1 h
same,half-life,[2]; aqueous humor,1 h
same,AUC,[2]; aqueous humor,324 ng·h/mL
same,Cmax,[2]; choroid,79 ng/g
same,Tmax,[2]; choroid,1 h
same,half-life,[2]; choroid,0.7 h
same,Cmax,[2]; plasma,31 ng/mL
same,Tmax,[2]; plasma,0.5 h
same,half-life,[2]; plasma,5.4 h
same,AUC,[2]; plasma,262 ng·h/mL
same,Cmax,[2]; retina,24 ng/g
same,Tmax,[2]; retina,1 h
same,"Ocular exposure in the posterior eye, comparison of routes",[3]; intravitreal injection compared to oral and topical administration,highest ocular exposures
same,AUC,"[3]; other: intravitreal injection, 50 μl of 1 mg/mL in both eyes, choroid",63300 ng·h/mL
same,AUC,"[3]; other: intravitreal injection, 50 μl of 1 mg/mL in both eyes, plasma",287 ng·h/mL
same,AUC,"[3]; other: intravitreal injection, 50 μl of 1 mg/mL in both eyes, retina",79900 ng·h/mL
same,Tmax,[3]; [9],1 h
same,AUC,[3]; [9],55400 ng·h/mL
same,Tmax,[3]; [10],1 h
same,half-life,[3]; [10],2.4 h
same,Tmax,[3]; [11],2 h
same,half-life,[3]; [11],4.2 h
same,Tmax,[3]; [12],1 h
same,half-life,[3]; [12],2.6 h
same,half-life,"[3]; other: intravitreal, 50 µg/eye, vitreous",4.6 h
same,Cmax,"[3]; 50 μl of 1 mg/mL in both eyes, choroid",15000 ng/g
same,Cmax,"[3]; 50 μl of 1 mg/mL in both eyes, plasma",19 ng/mL
same,Cmax,"[3]; 50 μl of 1 mg/mL in both eyes, retina",10100 ng/g
same,Cmax,"[3]; 50 μl of 1 mg/mL in both eyes, vitreous",6650 ng/mL
same,Effect on LPS-induced reduction in cell viability (cytotoxic effect),HL-1 cells,dose-dependently reversed
same,LPS-induced TNF alpha release,"[4]; 10 nM, 100 nM or 1 μM, 1 μg/mL LPS",significantly and dose-dependently reduced
same,"Influence on TNF alpha production, compound alone",[4]; Comp-02 alone (no LPS),did not have an influence
same,Macrophage infiltration (ED1 positive cells) in cardiac tissue,[5],significant reduction
same,Macrophage infiltration (ED1 positive cells) in renal tissue,[6],significant reduction
same,Macroscopic tolerability of the Comp-02 formulation,[7],very well tolerated
same,Macroscopic tolerability of the Comp-02 formulation,[8],very well tolerated
